The values below are quoted from earlier work in patent publication US20100292326A1, “PHARMACEUTICAL COMPOSITION COMPRISING S-NITROSOGLUTATHIONE AND POLYSACCHARIDE” (priority 2007, published 2010).

As a reminder, the half-life is how long it takes for the measured level to halve.

Structures are written as SMILES.

For this data set the following is noted: buffer.

As for `N[C@@H](CCC(=O)N[C@@H](CSN=O)C(=O)NCC(=O)O)C(=O)O` [GSNO, S-nitrosoglutathione], the half-life was 5.5 h.
